Patent US5721106A, “In Vitro method for screening β-amyloid deposition” (Regents of the University of Minnesota, priority 1994, dated 1998)
Ends that are not written are not given here.

What was measured:
[1] = test system: AD plaques; test: Deposition of ^125 I-labelled β-amyloid peptides onto plaques in AD brain tissue (homogenate binding, autoradiography); parameters: species or system human
Method: Fragments labelled in accordance with the method described herein can be combined with amyloid plaque derived from Alzheimer's disease tissue or other amyloid substance such as silk, and tested for activity, for example, their ability to deposit on these materials.
Brain tissue was obtained form normal and Alzheimer's disease patients at 0.5 to 14 hours postmortem, frozen on dry ice after collection, and stored at -20° C. until use. For filter binding studies, tissue homogenates were prepared after the method of H. P. Too and M. R. Hanley, Biochem. J. 252:545 (1988), the disclosure of which is incorporated by reference herein. Tissue was homogenized (Polytron, setting 7-8, 5-10 sec) in 5-10 volumes of 50 mM Tricine (pH 7.5) containing 10% sucrose and protease inhibitors (0.01% bacitracin, 0.002% soybean trypsin inhibitor, 0.0002% chicken egg trypsin inhibitor, 1 mM benzamidine hydrochloride) and pelleted at 10,000 g for 20 minutes. The homogenate was then resuspended and washed several times in Tricine buffer containing 120 mM NaCl, 10 mM EDTA, 300 mM KCl and centrifuged at 40,000 g for 20 minutes and stored at -20° C. for less than two months. Membranes (equivalent to about 30 mg tissue) were resuspended in 0.5 ml 50 mM TrisHCl (pH 7.5) containing 1 mg/ml bovine serum albumin (BSA), 10 mM MnCl2, 0.004% bacitracin, 0.002% chymostatin, 0.004% leupeptin, 0.1% dimethylsulfoxide for 30 minutes prior to addition of the radioligand (10^-11 to 10^-9 M) and various concentrations of unlabelled peptides in the same buffer.
After incubating for two hours at room temperature, the homogenates (final volume 0.575 ml) were filtered through glass fiber filters (Whatman GF/D), presoaked for at least two hours in 1 mg/ml BSA and rinsed with 25 mM Tricine (pH 7.5). After washing twice with 25 mM TrisHCl (pH 7.5) at room temperature, the filters were counted in a gamma counter.
For tissue autoradiography, unfixed tissue was serially sectioned at 5-15 μm and thaw-mounted onto gelatin-coated slices. Slide-mounted sections were stored at -20° C. in closed boxes over desiccant for less than three months before use. Sections were preincubated for 30 minutes and incubated with the radioligand for two hours under the same conditions according to the aforedescribed homogenate binding study. Alternatively, 50 mM TrisHCl rather than Tricine may be used as the buffer. For estimating nonspecific binding, paired serial sections were incubated with the radioligand in the presence of a 10^4 to 10^5 fold excess of the unlabelled peptide. Following incubation with the radioligand, the slides were washed with 50 mM TrisHCl pH 7.5 (four times, two minutes each at 4° C.), then dried at 4° C. and stored in closed boxes over desiccant at room temperature overnight. The fully dried slides were then placed in apposition to tritium-sensitive film alongside iodinated standards. After one week's exposure at -20° C., the film was developed, fixed and washed. […] This approach generated film autoradiograms for quantitative densitometry,a high resolution emulsion autoradiograms for detailed histology, and a counterstained section for identification of cell types from each tissue section.
Briefly peptides were purchased or synthesized by fluorenemethoxycarbonyl chemistry on polystyrene resins, using acid-labile blocking groups for sidechain protection, cleaved with trifluoroacetic acid, and purified by RP-HPLC. […] Autoradiograms were quantitated by densitometry. […] To study the peptide fragments in water we developed a novel approach, measuring NMR data at 750 MHz using a prototype 10 mm ^1 H pulsed field gradient probe. Modified two-dimensional homonuclear TOCSY and NOESY experiments were measured at several pH values and structural information was derived using standard methods.

[2] = test system: adult rat brain; test: Binding of radiolabelled rat β-amyloid peptide to rat brain
[3] = test system: ceilan katia yarn (silk); test: Deposition of radiolabelled β-amyloid peptides onto silk; type: binding, Bombyx silkworm; conditions: in the presence of Triton X-100 (FIG. 5)
Method: Peptide deposition was conducted and detected as described in Example 2, except that instead of using brain tissue obtained from patients with Alzheimer's disease, silk was used as a template for β-amyloid deposition. The silk specimens were wound about or placed on a glass microscope slide and treated exactly as a piece of Alzheimer's disease (AD) brain tissue was treated in Example 2, using the same solutions, incubations times, etc. Experiments involving AD brain sections and control fabrics, such as nylon and cotton, were conducted in parallel.
Although screens of the many available silks were done at pH 8.5, later experiments were conducted at a preferably lower pH. Silk deposition experiments were done in 96-well plates. Labelled β-amyloid peptide concentration ranged from 20-100 pM, and the amount of silk used per assay ranged 0.5 to 5 mg.

[4] = molecular target: amyloid plaques in Alzheimer's disease brain tissue (homogenates and thin sections); test: deposition of labelled fragment
[5] = molecular target: silk; test: deposition of radiolabelled peptide onto ceilan katia yarn with Triton X-100

## Radiolabelled rat β-amyloid peptide^1-40: radiolabelled rat β-amyloid peptide 1-40 (DAEFGHDSGFEVRHQKLVFFAEDVGSNKGAIIGLMVGGVV; also: radiolabelled, label site not given here; UniProt P08592 672-711, looked up)
[1]
  binding to Alzheimer's disease or normal human tissue: failed to bind
[2]
  binding to adult rat brain: failed to bind

## βA(1-40)-NH2: derivatized 40-mer, with a carboxyamide at the C-terminus
[1]; labelled fragment combined with AD amyloid plaque or silk, relative to βA(1-40)-OH
  deposition activity of fragment (active / not active): active
[3]
  deposition of radiolabelled peptide onto ceilan katia yarn (silk): active

B1: βA(26-42)-NH2 (peptide)
peptide: SNKGAIIGLMVGGVVIA-NH2
modifications: also: 125I-labelled after acylation with 4-hydroxyphenylpropionic acid, site not given here
[4]
  fold activity relative to β-amyloid peptide: 3 fold
[5]
  fold activity relative to βA(1-40)-OH and βA(1-40)-NH2: 3 times
